Our source for the melting point values is a melting point compilation (Tetko et al.; mined from patent text by program, amines drawn as free bases though some values may be those of a salt).

Each structure is given as a SMILES string.

In turn, `Nc1cc(Oc2ccc(NC(=O)Nc3ccc(-c4ccccn4)c(C(F)(F)F)c3)cc2)ncn1` had a melting point of 188 to 192 °C.

On to `COc1ccc2[nH]c(SCc3ncc(C)c(N4CCOCC4)c3Cl)nc2c1`, for which the melting point is 162 to 164 °C.

Regarding `CCCCCCCCCCCCOC(=O)c1ccc(Cl)c(N)c1`, the melting point fell in the range of 58.3 to 59.5 °C.

For the molecule `CCOC(=O)C1=C(COc2cccnc2)NC(COc2cccnc2)=C(C(=O)OCC)C1c1cccc([N+](=O)[O-])c1`, the melting point was in the range of 206 to 208 °C.

Molecule `Cc1cccc(C(=O)NCc2cccc3c2C(=O)N(C2CCC(=O)NC2=O)C3=O)c1` (stereo not drawn) returned a melting point of 218 to 220 °C.

Take `COc1ccc(CS(=O)(=O)C(C)(Cc2ccccc2)C(=O)O)cc1` (stereo not drawn): the melting point fell in the range of 58 to 59 °C.

On to `O=S(=O)(NC1CCN(C2CCCCC2)CC1)c1ccc(Nc2ccnc3cc(Cl)ccc23)cc1`, for which the melting point was in the range of 192 to 193 °C.

In turn, `Cc1cccc(NC(=O)NCC(=O)N(CC(=O)OC(C)(C)C)c2cccc(OC(F)(F)F)c2)c1` registered a melting point of 125 °C.

For `CSc1c(C#N)nn(-c2c(Cl)cc(C(F)(F)F)cc2Cl)c1N(C)C`, the melting point was in the range of 118 to 119 °C.

`CCCCCCCCCCCCCCCCS(=O)(=O)Nc1ccc(OC)c(NC(=O)CC(=O)C2(C)COC(C)(C)OC2)c1` registered a melting point of 68 to 70 °C.

`O=C(Nc1ccc2cn[nH]c2c1)C(=O)N1CCC(Cc2ccccc2)CC1` yielded a melting point of 160 to 164 °C.

Regarding `C#CC1CCN(C(=O)c2ccccc2)CC1`, the melting point fell in the range of 101 to 103 °C.

`COc1ccc(NN=C(Sc2ccccc2)C(C)=O)cc1` came in with a melting point of 120 to 123 °C.

`c1ccc(-c2nnc3c4ccccc4c(N4CCCC4)nn23)cc1` registered a melting point of 208 °C.

For the molecule `FC(F)(F)C1(c2cc(Cl)cc(Cl)c2)CC(c2ccc(-c3cn[nH]c3)c3ccccc23)=NO1` (stereo not drawn), the melting point lay in the range of 117 to 120 °C.

The molecule `C=CCc1c(OCC(=O)O)ccc2c(CCc3nc(-c4ccc(Cl)cc4Cl)oc3C(C)C)noc12` came in with a melting point of 80 to 85 °C.

`NC1=NCC(COc2cccc(C(F)(F)F)c2)O1` (stereo not drawn) returned a melting point of 10 °C.

Regarding `CCCc1c(SCCCOc2ccc3c(=O)cc(C(=O)O)oc3c2CCC)ccc(C(C)=O)c1N`, the melting point is 202 to 204 °C.

Take `Oc1cc(O)n2nc(-c3ccc(F)cc3)c(-c3ccncc3)c2n1`: the melting point was greater than 250 °C.

`COCC1CN(c2ccc(C3CCC(OC(c4ccccc4)c4ccccc4)CC3)cc2)C(=O)O1` (racemic) gave a melting point of 146 to 148 °C.

Molecule `CCC(CC)(CC(=O)Nc1cccc(SCc2ccc3ccc(F)cc3n2)c1)C(=O)O` had a melting point of 70 to 71 °C.

`CC(C)=CCCNC(=S)Nc1nc(C)cs1` displayed a melting point of 164 to 166 °C.

For `COC(=O)CCCCCCC1=C(OC)C(=O)CC1=O`, the melting point amounted to 103 °C.

On to `COc1ccc(S(=O)(=O)NC(CCF)C(=O)OC(C)(C)C)cc1` (stereo not drawn), for which the melting point was in the range of 89 to 90 °C.

`COC1(c2cc(F)cc(Sc3ccc4c(c3)O[C@H](C)C(=O)N4C)c2)CCOCC1` yielded a melting point of 107 to 109 °C.

Molecule `CCOC(=O)C(C)O/N=C(\C(=O)Sc1nc2ccccc2s1)c1csc(N)n1` (stereo not drawn) had a melting point of 113 °C.

On to `Nc1nc2ccc(CCN3CCC(Cc4ccccc4)CC3)cc2s1`, for which the melting point fell in the range of 152 to 153 °C.

As to `Cc1cc2c(N3CCCC3C)ccc(C#N)c2o1` (stereo not drawn), the melting point lay in the range of 78 to 80 °C.

Regarding `CSC(=S)C1(c2cccc(C)n2)SCCCS1`, the melting point came to 92 °C.

`CCn1cc(C(=O)O)c(=O)c2cc(F)c(N3CC4CCC3CN4)cc21` (stereo not drawn) had a melting point of 270 to 272 °C.

With `C=C(C#N)S(=O)(=O)c1ccc(OC(F)(F)C(Cl)Cl)cc1`, the melting point lay in the range of 89 to 90 °C.

Molecule `CC(C)(C)OC(=O)N1CCC[C@H](O)[C@H](NC(=O)c2ccc(OC(C)(C)C)cc2)C1` had a melting point of 132 °C.

For `O=C1CC(=O)CC(c2ccc(Cl)c(Cl)c2)C1`, the melting point fell in the range of 198 to 200 °C.

In turn, `Cc1nc(Cl)c2c(n1)N(c1c(C)cc(Br)cc1C)C(=O)C2C` (stereo not drawn) gave a melting point of 148 to 150 °C.

In turn, `CON(C)C(=O)c1cc(-n2c(=O)cc(C(F)(F)F)n(C)c2=O)c(F)cc1Cl` showed a melting point of 158 °C.

`CCCCn1c(=O)c2nn(S(=O)(=O)c3cc(Cl)c(Cl)s3)cc2n(CCCC)c1=O` displayed a melting point of 163 to 166 °C.

On to `N#Cc1ccc(N(CCCCOc2ccc(OS(N)(=O)=O)cc2)n2cnnc2)cc1`, for which the melting point was 164 to 172 °C.

For the molecule `CN1CCC23c4cccc(O)c4OC2C2CCC3(CC2)C1` (stereo not drawn), the melting point fell in the range of 174 to 176 °C.

For `CC(=O)N(C)c1cc2c(nc(C)n2C)c(O)c1CN(C)C`, the melting point lay within 181 to 184 °C.

`Cc1nn(-c2ccc(F)cc2)cc1C(=O)N(CC(=O)O)c1ccc(N2CCC(O)CC2)c(C#N)c1`: the melting point lay within 124 to 125 °C.

`O=c1[nH]c(=S)[nH]cc1Oc1cccnc1` yielded a melting point of 227 to 230 °C.

As to `CCCN(CCC)CCCC1CCN(CCNC(=O)N2c3cc(C)ccc3C(=O)Nc3cccnc32)CC1`, the melting point worked out at 195 °C.

As for `COc1ccc(C2C3=C(COC3=O)Nc3onc(-c4ccc(Cl)cc4)c32)cc1O` (stereo not drawn), the melting point is 245 to 246 °C.

Molecule `CC(C)(C)OC(=O)Oc1ccc(C(C(=O)OC(c2ccccc2)c2ccccc2)N2CC(N)C2=O)cc1` (stereo not drawn) came in with a melting point of 120 to 122 °C.

Turning to `COc1ccc(-c2cc(COS(C)(=O)=O)c(=O)n(CCCc3ccc(F)cc3)n2)cc1F`, the melting point was 112 to 116 °C.

`O=C(O)CCCCCCCCCCCCCCCCCCC(=O)ON1C(=O)CCC1=O` displayed a melting point of 122 to 124 °C.

Turning to `N#Cc1cc(Cl)c(N)c(I)c1`, the melting point is 121 to 123 °C.

`COCOC1=C(C(=O)OC)CC(C#N)(c2ccc(OC)c(OCC3CC3)c2)CC1` (stereo not drawn) showed a melting point of 98 to 99 °C.

Consider `O=C(O)CC(=O)Nc1c(-c2ccccc2)c(=O)[nH]c2cc(Cl)ccc12`, for which the melting point came out at 260 °C.

As to `COc1ccc(C(O)c2cccnc2)cn1` (stereo not drawn), the melting point fell in the range of 129 to 130 °C.

As for `CCCn1nnn(-c2ccc([N+](=O)[O-])cc2)c1=O`, the melting point came out at 91.1 °C.

`Oc1cc2c(cc1CNc1ccccc1)OCC2` gave a melting point of 130 to 131 °C.

For the molecule `COc1cccc(CNc2ncnc3c2sc2nc(N4CCCC4)c4c(c23)CC(C)(C)OC4)c1OC`, the melting point is 166 to 168 °C.

`NC(CSCc1ccccc1C(=O)O)C(=O)O` (stereo not drawn): the melting point fell in the range of 252 to 254 °C.

Molecule `CCCCCCCCCCCCCc1cc(C(=O)OCCC)c[nH]1` came in with a melting point of 51 to 52 °C.

Molecule `CCC(C)(NC(=O)c1cc(Cl)c(N)c(C=NOC)c1)C(=O)CCl` (stereo not drawn) displayed a melting point of 140 to 141 °C.

`C[C@]12CCC(=O)N[C@@H]1CCc1cc(C=O)ccc12` returned a melting point of 185 to 189 °C.

`CN(C)Nc1c([N+](=O)[O-])cc(C(F)(F)F)c(N)c1[N+](=O)[O-]` yielded a melting point of 150 to 154 °C.

Molecule `CCCCCCCCCCC1COC(=O)N1` (stereo not drawn) yielded a melting point of 31.5 to 32.5 °C.

`C[C@@H](Nc1ncnc2[nH]c(-c3ccc(CN(CCO)CCO)cc3)cc12)c1ccccc1` came in with a melting point of 194 to 197 °C.

`CN(C)Cc1ccc(CSCCNC2=NS(=O)(=O)c3cscc32)o1`: the melting point lay within 120 to 124 °C.

`CCCCCCCCCC#CCCCCCCCCCCCO` showed a melting point of 38 to 39 °C.

With `CCOCc1nc2c(N)ncc(C)c2n1CCCCNS(C)(=O)=O`, the melting point lay in the range of 173 to 175 °C.

With `O=C(O)CP(=O)(O)CCc1ccccc1`, the melting point is 120 to 121 °C.

`CCOC(=O)C(CCCc1ccccc1CP(=O)(OCC)OCC)(NC(C)=O)C(=O)OCC` came in with a melting point of 76 to 79 °C.

As for `CCOC(=O)C1=C(C)NC(C)=C(C(=O)OCCN2CCN(C(c3ccc(C)cc3)c3ccc(C)cc3)CC2)C1c1cccc([N+](=O)[O-])c1` (stereo not drawn), the melting point was in the range of 82 to 85 °C.

The molecule `CNC(=O)c1cc(C(=O)O)c2cc(Cc3ccc(F)cc3)cnc2c1O` displayed a melting point of 203 to 205 °C.

Molecule `CN(C)C(=O)C(C#N)=C1Nc2ccccc2O1` gave a melting point of 196 °C.

With `Clc1ccccc1N=C1NCCN1`, the melting point lay in the range of 133 to 134 °C.

`Cc1ccnc(Sc2nc(C)c(CC(=O)O)s2)c1C(=O)O` came in with a melting point of 208 to 210 °C.

With `Cc1nc2c(NC(=O)OCCc3ccc([N+](=O)[O-])cc3)nc(=O)n(C3CC(O)C(CO)O3)c2nc1C` (stereo not drawn), the melting point is 154 to 155 °C.

For `O=c1cc(-c2cccnc2)oc2ccccc12`, the melting point fell in the range of 123 to 124 °C.

The molecule `CN(C)C(=O)NC1CCCc2sccc21` (stereo not drawn) returned a melting point of 117 to 120 °C.

For the molecule `O=[N+]([O-])c1cccc(-c2nc(Nc3cccc(Cl)c3)c3cc[nH]c3n2)c1`, the melting point is greater than 250 °C.

In the case of `CCOc1ccc(C(=O)Nc2ccc(C(C)(C)C#N)cc2)cc1OCC`, the melting point is 138 to 140 °C.

With `O=C1CCN2C(=O)c3cccc(NC(=O)Nc4ccccn4)c3C2C1` (stereo not drawn), the melting point stood at 254 °C.

`CCCCc1cn(Cc2ccc(-c3ccccc3C(=O)O)cc2)c2c(c1=O)CCCC2` came in with a melting point of 260 °C.

Regarding `O=C(O)CN1C(=O)C(=Cc2c[nH]c3ccccc23)SC1=S`, the melting point was greater than 300 °C.

`O=C1Nc2ccc(Br)cc2C(c2ccccc2F)=NC1O` (stereo not drawn) displayed a melting point of 196 to 198 °C.

`COCC(OC(C)=O)C1CC(O)C2(C)CCC3C(CCC4=CC(=O)C=C(C)C43C)C12` (stereo not drawn) showed a melting point of 203 to 204 °C.

In turn, `O=c1cc(CO)nc2ccn(-c3ccccc3)n12` gave a melting point of 241 to 242 °C.

For the molecule `CC1(C)CCC(C)(C)c2cc(-c3cc(-c4ccc(C(=O)O)cc4)ccc3OCCCCCCO)ccc21`, the melting point fell in the range of 200 to 201 °C.

In turn, `C#CCC1(O)CCCCC1` showed a melting point of 53 to 54 °C.

On to `CC(C)(C)OC(=O)NC12CC3CC(CC(O)(C3)C1)C2`, for which the melting point was 131 to 132 °C.

Molecule `CCOC(=O)C1=C(C(=O)OCC)C(c2cc(OC)c(OC)c(OC)c2)C(C(=O)OCC)=C(C)N1` (stereo not drawn) returned a melting point of 134 °C.

In turn, `O=S1N=C(NCCCN(Cc2ccccc2)c2ccccn2)C(NCc2ccncc2)=N1` (stereo not drawn) showed a melting point of 140 to 142 °C.

The molecule `COC(=O)C(NC(=O)OC(C)(C)C)c1ccc(OS(=O)(=O)C(F)(F)F)cc1` (stereo not drawn) gave a melting point of 67 to 67.6 °C.

`Cc1n[nH]c(COc2nn3c(-c4ccccc4)nnc3cc2-c2ccccc2)n1` had a melting point of 233 to 235 °C.
